Experimental data from patent publication US20240082260A1, “INHIBITOR OF PROTEIN KINASE D FOR USE IN PREVENTION OR TREATMENT OF HYPERLIPIDEMIA” (priority 2021, published 2024).

Columns and labels:
[1] = system: Caco2 cells deficient in PKD2; assay: 14C-fatty acid basolateral release in Caco2 cells expressing shPkd2 in transwell system; assay type: cell-based, human; conditions: 24 h, FIG. 6B
Experimental: Caco2 cells were cultured in Dulbecco's modified eagle's medium 4.5 g/L glucose (DMEM), 10% fetal bovine serum (FBS), non-essential amino acids (NEAA), 1 mM sodium pyruvate, and 40 μg/mL gentamycin. For the generation of shRNA cell lines, Pkd2 shRNA lentiviral sequences or scramble (non-targeting) were first cloned into the pLKO.1-puro vector then packed into viral particles in packaging cells (HEK293T) using 3rd generation packaging vectors. Caco2 cells were spinfected with viral supernatant then selected with puromycin and the deletion efficiency was further assessed by western blot.
Lipid transport studies were assessed in Caco2 cells seeded in trans-wells. 1.5×10^5 cells were seeded into a 12-well cell culture insert of 1 μm pore size Trans-well and maintained in for 14 consecutive days with media change every two days. For the lipids uptake and release, the apical side of the membrane was loaded with radioactive ^14C-palmitic acid (0.2 μCi), oleic acid (1 mM), and taurocholic acid (2 mM) in DMEM high glucose 10% FBS. The basal medium contained DMEM high glucose 0.1% FBS. After 24 hours of incubation, cell lysates and the apical and basolateral medium was collected and the ^14C-palmitic acid was measured in a scintillation counter for aliquots of apical and basal medium and for cell lysate. […]

male C57BL/6 mice on HFD = assay: Oral PKD inhibitor in mice with pre-established obesity (rescue, treatment after 7 weeks of HFD); assay type: in vivo, mouse
Experimental: Mice body weight development was closely monitored and reported here on a weekly basis when mice were on a specified diet. All experiments were performed in male mice. […] A glucose tolerance test (GTT) was performed after overnight fasting. Mice blood glucose was assessed before and 15, 30, 60, 90, and 120 minutes after intraperitoneal injection of glucose (2 g/kg). For the Insulin tolerance test (ITT), the same measurements were performed after 4 hours of fasting and intraperitoneal injection of 0.5 U/kg of recombinant insulin. For glucose measurements, one blood drop was drawn from the tail tip into a test strip and measured with a glucometer (Accu-Chek® Roche).

LDLR-/- mice = assay: Atheroma formation in high cholesterol diet-fed LDLR-/- mice; assay type: in vivo, mouse; conditions: oral 10 mg/kg a day, 7th to 17th week of high cholesterol diet, vs solvent
Description: To assess the impact of PKD2 on cholesterol levels as well as on atheroma formation, we utilized a mouse genetic model of atheroma formation and mice carrying inactivatory mutation in the sequence encoding PKD2 (Matthews et al, 2010). Mice deficient for Low-density lipoprotein receptor (LDLR), develop hyperlipidemia (elevated levels of cholesterol) and deposit a significant amount of atherosclerotic plaques in the vessels especially when fed with a high cholesterol diet (containing 1.25% of the cholesterol in the food) (Ishibashi et al, 1993). We crossed mice deficient for LDLR (LDLR−/−) and mice carrying inactivatory mutation of PKD2 (PKD^ki/ki) to generate double mutant mice (LDLR−/− PKD^ki/ki) and corresponding control animals, LDLR−/−. These animals were fed for 18 weeks with high cholesterol diet. […] The relative plaque area was also quantified.
To test if inhibition of PKD by CRT0066101 compound is also sufficient to reduce atherosclerotic plaque formation, we also utilized high cholesterol diet-fed LDLR−/− mice as a model. […] After the 17th week of the experiment, mice were sacrificed and lipid levels in the blood, as well as the amount of atherosclerotic plaques, were assessed as described for the genetic model above.

Caco2 cells = assay: Lipid transport (14C-fatty acid release) through Caco2 monolayer in transwell system; assay type: cell-based, human; conditions: 24 h
Experimental: Lipid transport studies were assessed in Caco2 cells seeded in trans-wells. 1.5×10^5 cells were seeded into a 12-well cell culture insert of 1 μm pore size Trans-well and maintained in for 14 consecutive days with media change every two days. For the lipids uptake and release, the apical side of the membrane was loaded with radioactive ^14C-palmitic acid (0.2 μCi), oleic acid (1 mM), and taurocholic acid (2 mM) in DMEM high glucose 10% FBS. The basal medium contained DMEM high glucose 0.1% FBS. After 24 hours of incubation, cell lysates and the apical and basolateral medium was collected and the ^14C-palmitic acid was measured in a scintillation counter for aliquots of apical and basal medium and for cell lysate. The same protocol was used in Caco2 cells that were treated with CRT0066101 (3 and 5 μM) for 24 h (added together with the mentioned radioactive fatty acid cocktail).
In order to test the potential of PKD inhibitors to restrict lipid transport via epithelial monolayer, we employed Caco2 cells seeded into the Transwells system. Briefly, we plated 1.5×10^5 cells seeded into a 12-well cell culture inserts of 1-μm pore size Transwell and maintained in for 14 consecutive days with media change every 2 days. For the lipid uptake and release, the apical side of the membrane was loaded with radioactive 14C-palmitic acid (0.2 μCi), oleic acid (1 mM), and taurocholic acid (2 mM) in DMEM high glucose 10% FBS. The basal medium contained DMEM high glucose 0.1% FBS. After 24 h of incubation, cell lysates and the apical and basolateral medium were collected and the 14C-palmitic acid was measured in a scintillation counter for aliquots of apical and basal medium and for cell lysate. To assess the efficiency of different PKD inhibitors, Caco2 cells were treated with either CRT0066101 (5 μM), CID2011756 (20 μM), CID755673 (20 μM), 1-NM-PP1 (20 μM), or control solvent solution (DMSO) for 24 h (added together with the mentioned radioactive FA cocktail).

## CC[C@@H](N)CNc1ccnc(-c2cc(-c3cnn(C)c3)ccc2O)n1 [CRT0066101]
[1]
  TG secretion (basolateral release of 14C-labeled fatty acids): did not reduce TG secretion
Male C57BL/6 mice on HFD; 8 weeks after starting treatment, FIG. 7D
  glucose tolerance: improved glucose tolerance
Male C57BL/6 mice on HFD; 10 weeks after starting treatment, FIG. 7E
  insulin sensitivity: improved
Male C57BL/6 mice on HFD; treatment started after 7 weeks HFD, HFD continued, vs water, FIG. 7A
  weight gain: significantly decreased weight gain
Male C57BL/6 mice on HFD; treatment started after 7 weeks HFD, FIG. 7B-C
  obesity (fat depots, fat mass by NMR): less obesity
LDLR-/- mice; FIG. 10A
  blood cholesterol levels: reduction in cholesterol levels
LDLR-/- mice; FIG. 10B-C
  size of atherosclerotic plaques (relative area in aorta, OilRedO): smaller size of atherosclerotic plaques
Caco2 cells; 5 μM, vs DMSO, FIG. 8
  lipid transport through the Caco2 monolayer: significant reduction in lipid transport
Caco2 cells; Caco2 transwell, 3 and 5 μM, FIG. 6A
  TG secretion (basolateral release of 14C-labeled fatty acids): reduces TG secretion in a dose dependent manner
